The conditions of data set [1]: cited from earlier work; for peak plasma concentration for improved ejection fraction and work product: ref [17].
Data set [2] deals with isolated human atrial tissue. The note with it: isolated human atrial tissue from cardiac bypass; ref [6]; cited from earlier work.
The subject of data set [3] is human ventricular cardiac tissue strips (hvCTS). In words: hvCTS drug screening: twitch force under electrical pacing. The class given is cell-based. The note with it: for IC50 / EC50: Homo sapiens; for IC50: read-out: IC50, developed contractile force. As to the method:
One of ordinary skill in the art will recognize that the gels can be formed in any of a variety of sizes and shapes, and the molds used to form such gels can also be formed in any of a variety of sizes and shapes, depending on the intended use of the molded gel. The molded mixtures were then bathed with culture medium (DMEM supplemented with 10% newborn calf serum), and maintained in culture with daily half-medium exchanges. Inserts in the casting molds were removed at 48 hours, yielding a self-assembled hvCTS held between 0.5-mm-diameter circular PDMS posts at each end. It is apparent that the posts can be formed from any flexible material amenable to at least one form of sterilization are suitable. As noted above, the whole mold can be scaled up or down depending on the application, and the posts can also be scaled up or down. In general, the height of the posts would be similar to the height of a well (e.g., about 6 mm in an exemplary embodiment). Any of a wide variety of cross-sectional shapes is contemplated as being suitable for use in the system, apparatus and methods according to the disclosure. At 7 days after hvCTS creation, the hvCTS were used for drug screening.
Initially, pharmacological compounds were prepared for screening. Compounds for unblinded “open label” screening were purchased from Sigma and stock solutions at the highest possible concentrations were prepared according to the product information. Working concentrations over a 5-logarithmic range were prepared for each drug.
Working concentrations over a 5-logarithmic range were prepared for each drug according to the dose-range recommendation provided by the supplier.
New born calf serum containing medium was replaced with DMEM high glucose with HEPES without phenol red for optical measurement of generated force in hvCTS. […] The integrated flexible PDMS posts were used as force sensors, with the post deflection captured in real-time with a high-speed camera (100 frames/s) and LabView software (National Instruments, Austin, Tex., USA), applying a beam-bending equation from elasticity theory to calculate twitch force, as described previously^[2] and incorporated herein by reference. These measurements were obtained with the hvCTS maintained in the original molds where they were created with the hvCTS bathed in culture medium at 37° C. For each drug, force generated in response to 9 doses were measured with the drugs added to the hvCTS at half log increments in a cumulative manner. For each dose, the force generated at 0 Hz, 0.5 Hz, 1 Hz, 1.5 Hz and 2 Hz electrical pacing with field electrodes were measured.
Data analysis. Data were calculated and analyzed by a customized MatLab program. Force frequency curves for each drug were generated by plotting the generated force at 0.5 Hz, 1 Hz, 1.5 Hz and 2 Hz at different concentrations. All forces were normalized to the generated force at 0.5 Hz at the drug-free baseline condition (100%).
[…] The force generated under drug-free baseline condition was defined as 100%. The force generated at each drug concentration was then normalized to the generated force under the cognate drug-free baseline condition. The EC50 of each tested drug was estimated by fitting to a four-parameter dose-response equation given as: Y=Bottom+(Top-Bottom)/(1+10^((Log EC^50^−X)*HillSlope)), using commercial software (GraphPad Software Inc.). X is the logarithm of drug concentrations; […]; Top and Bottom are the Y values of the top and bottom plateaus of the curve itself; Baseline is the Y value that defines 0%—maximal inhibition by a standard drug. Hill Slope quantifies the steepness of the dose-response curve (the higher the Hill Slope, the steeper the curve).

In data set [4] the test system is human atrial and ventricular cardiomyocytes. To be noted: ref [8]; cited from earlier work.
For data set [5], the system named is chick embryonic ventricular cells. To be noted: ref [9]; cited from earlier work.
In another data set the test system is canine papillary muscle. To be noted: ref [11]; cited from earlier work.
The test system of another data set is human atrial trabeculae. The note with it: ref [13]; cited from earlier work.
A further data set deals with rat atrial trabeculae. The note with it: ref [14]; cited from earlier work.
Data set [6] concerns human right atrial trabeculae. The note with it: ref [21]; cited from earlier work.
The mark [7] stands for this setting: 1 Hz pacing, blinded screening, Example 4.
Where [8] appears, read: Blinded, 1 Hz pacing, read-out: -log EC50 in hvCTS (converted).
[9] abbreviates: Blinded, 1 Hz pacing, read-out: EC50 in hvCTS (in brackets).
[10] abbreviates: 1 Hz pacing, unblinded screening, Example 3.
[11] abbreviates: Unblinded, 1 Hz pacing, read-out: -log EC50 in hvCTS (converted).
[12] abbreviates: Unblinded, 1 Hz pacing, read-out: EC50 in hvCTS (in brackets).
Setting [13] is: 1 Hz pacing, blinded screening, Example 4, read-out: EC50, developed contractile force.
Setting [14] is: 1 Hz pacing, unblinded screening, Example 3, read-out: EC50, developed contractile force.

Consider 21 molecules from US20200369996A1, “Bioreactor Screening Platform for Modelling Human Systems Biology and for Screening for Inotropic Effects of Agents on the Heart” (NOVOHEART LIMITED, priority 2017, published 2020).

“And” between values parts separate entries of the source, which are not always exact repeats. Identical values can stand only once. Like-named read-outs stand apart in the source and are kept apart here.

What is called IC50 is the concentration at which inhibition is half-maximal. For orientation: EC50 means the concentration that produces a half-maximal response.

Consider `CN(C)CCC=C1c2ccccc2CCc2ccccc21` [Amitriptyline], for which the “plasma concentration in psychiatric patients” value in [1] (ref [5]) is 98-208 ng/mL and 0.35-0.74 μM. Besides, the 30-60% effective concentration in data set [2] is 40-400 μM [6], 30-60% effective concentration. In data set [3] (setting [7]), the IC50 is 450 µM. Moreover, the EC50 was 447 µM in data set [3] (setting [8]) and 450 µM in [3] (setting [9]).

With `CC(=O)Oc1ccccc1C(=O)O` [Aspirin], the “effect on developed contractile force / contractility” value in data set [3] (blinded screening, Example 4) was “did not show any dose-dependent effect on contractility”.

As for `CC(C)COCC(CN(Cc1ccccc1)c1ccccc1)N1CCCC1` (centres unmarked) [Bepridil], the relevant concentration in data set [4] is 100 μM [8], human atrial and ventricular. Moreover, in data set [3] (setting [10]), the IC50 stood at 3.3 µM. For the same molecule, the EC50 is 38 µM in data set [3] (setting [11]) and 37.9 µM in [3] (setting [12]).

Regarding `Cn1c(=O)c2c(ncn2C)n(C)c1=O` [Caffeine], the relevant concentration in data set [5] was 20 mM [9], in chick embryonic ventricular cells. In addition, the values for the EC50 in data set [3] (setting [13]), in [3] (setting [8]) and in data set [3] (setting [9]) were 0.29 µM, 0.288 µM and 0.287 µM, respectively.

Turning to `C[C@H]1O[C@@H](O[C@H]2[C@@H](O)C[C@H](O[C@H]3[C@@H](O)C[C@H](O[C@H]4CC[C@@]5(C)[C@H](CC[C@@H]6[C@@H]5C[C@@H](O)[C@]5(C)[C@@H](C7=CC(=O)OC7)CC[C@]65O)C4)O[C@@H]3C)O[C@@H]2C)C[C@H](O)[C@@H]1O` [Digoxin], in data set [1] (ref [10]), the “relevant concentration, increased pre-ejection period index” value was 1 ng/ml (1 nM) ([10], increased pre-ejection. The EC50 in [3] (read-out: -log EC50 in hvCTS (converted)) is 3.63 µM; in data set [3] (read-out: EC50, developed contractile force), 3.7 µM; in [3] (read-out: EC50 in hvCTS (in brackets)), 3.65 µM.

Take `CC(C)N(CCC(C(N)=O)(c1ccccc1)c1ccccn1)C(C)C` (centres unmarked) [Disopyramide]: the “EC50 of developed tension” value with canine papillary muscle is 824 μg [11], EC50 of developed tension in canine. The EC50 was 80 µM in data set [3] (setting [14]), 81.3 µM in [3] (setting [11]) and 82.2 µM in data set [3] (setting [12]).

Turning to `CC(CCc1ccc(O)cc1)NCCc1ccc(O)c(O)c1` (centres unmarked) [Dobutamine], the “peak plasma concentration with increased cardiac output” value in [1] (ref [12]) was 147-152 ng/ml and 0.487-0.5 μM. Further, the EC50 was 0.25 µM in [3] (setting [13]); 0.015 µM in [3] (setting [14]); 0.245 µM in data set [3] (setting [8]); 0.25 µM in data set [3] (setting [9]); 0.0151 µM in data set [3] (setting [11]); 0.015 µM in data set [3] (setting [12]). Further, the relevant concentration with human atrial trabeculae is 0.217 μM [13], human atrial trabeculae.

For the molecule `NCCc1ccc(O)c(O)c1` [Dopamine], the relevant concentration in the data set on rat atrial trabeculae is 20 μM [14], in rat atrial trabeculae. Besides, in data set [3] (blinded screening, Example 4), the “effect on developed contractile force / contractility” value is listed as “did not significantly affect the developed contractile force”.

In the case of `O=C(NCC1CCCCN1)c1cc(OCC(F)(F)F)ccc1OCC(F)(F)F` (centres unmarked) [Flecainide], the IC50 in data set [3] (setting [7]) was 15 µM. Moreover, the EC50 was 75 µM in data set [3] (setting [14]); 15.1 µM in data set [3] (setting [8]); 151 µM in data set [3] (setting [9]); 75.9 µM in [3] (setting [11]); 75 µM in [3] (setting [12]).

Take `COc1ccc(Cl)cc1C(=O)NCCc1ccc(S(=O)(=O)NC(=O)NC2CCCCC2)cc1` [Glibenclamide]: the “peak plasma concentration for improved ejection fraction and work product” value in [1] (after 5 mg oral administration) is 479 ng/ml and 0.096 μM. Moreover, the EC50 was 3.2 µM in data set [3] (setting [13]); 0.93 µM in data set [3] (setting [14]); 3.16 µM in data set [3] (setting [8]); 3.17 µM in data set [3] (setting [9]); 0.933 µM in data set [3] (setting [11]); 0.93 µM in [3] (setting [12]).

With `C[C@@H]1CC(=O)NN=C1c1ccc(NN=C(C#N)C#N)cc1` [Levosimendan], the EC50 is 0.15 µM in data set [3] (setting [14]), 0.145 µM in [3] (setting [11]) and 0.15 µM in data set [3] (setting [12]). The relevant concentration with human atrial trabeculae was 0.19 μM [13], human atrial trabeculae.

Take `NCCCC[C@H](N[C@@H](CCc1ccccc1)C(=O)O)C(=O)N1CCC[C@H]1C(=O)O` [Lisinopril]: the “effect on developed contractile force / contractility” value in data set [3] (blinded screening, Example 4) is “small increase in developed contractile force with increasing concentrations”.

Regarding `COCC(=O)O[C@]1(CCN(C)CCCc2nc3ccccc3[nH]2)CCc2cc(F)ccc2[C@@H]1C(C)C` [Mibefradil], the values for the IC50 in [6] and in data set [3] (setting [10]) were 24.5 µM and 38 µM, respectively. Also, the figures for the EC50 in [3] (setting [11]) and in [3] (setting [12]) were 3.16 µM and 3.39 µM, respectively.

With `Cc1[nH]c(=O)c(C#N)cc1-c1ccncc1` [Milrinone], the EC50 in [3] (setting [13]) is 2.8 µM; in data set [3] (setting [14]), 0.41 µM; in data set [3] (setting [8]), 2.75 µM; in data set [3] (setting [9]) it was 2.77 µM; in [3] (setting [11]), 0.407 µM; in [3] (setting [12]) it was 0.41 µM.

For the molecule `COC(=O)C1=C(C)NC(C)=C(C(=O)OC)C1c1ccccc1[N+](=O)[O-]` [Nifedipine], the “plasma concentration in patients with ischemic heart disease” value in data set [1] (ref [23]) is 29-73 ng/ml and 0.083-0.21 μM.

Regarding `NC[C@H](O)c1ccc(O)c(O)c1` [Norepinephrine], in data set [1] (ref [24]), the “plasma level after epinephrine infusion” value is 267 pg/ml and 0.15 nM. The EC50 was 0.35 µM in data set [3] (setting [13]), 0.347 µM in data set [3] (setting [8]) and 0.35 µM in data set [3] (setting [9]).

On to `CCN(CC)CCNC(=O)c1ccc(N)cc1` [Procainamide], for which the “EC50 of developed tension” value in the data set on canine papillary muscle was 7952 μg [11], EC50 of developed tension in canine.

On to `C=C[C@H]1C[N@@]2CC[C@H]1C[C@@H]2[C@@H](O)c1ccnc2ccc(OC)cc12` [Quinidine], for which the peak plasma concentration in data set [1] (at 495 mg, ref [26]) was 2.07 μg/ml and 6.3 μM. For the same molecule, the IC50 in data set [3] (setting [7]) was found to be 200 µM. Further, the 50% effective concentration (EC50) in data set [3] (setting [8]) is 204 µM; in [3] (setting [9]), 200 µM.

As to `CCOC(=O)[C@H](CCc1ccccc1)N[C@@H](C)C(=O)N1[C@H](C(=O)O)C[C@@H]2CCC[C@@H]21` [Ramipril], the “effect on developed contractile force / contractility” value in data set [3] (blinded screening, Example 4) is on record as “did not show any dose-dependent effect on contractility”.

Regarding `Cc1cccc(C)c1NC(=O)C(C)N` (centres unmarked) [Tocainide], the “EC50 of developed tension” value in the data set with canine papillary muscle is 1212 μg [11], EC50 of developed tension in canine. The “effect on developed contractile force” value is reported as “did not show any effect on developed contractile force” in [3] (all concentrations and pacing frequencies, unblinded screening, Example 3); “no dose-dependent effect on contractile force” in data set [3] (all tested pacing frequencies, Example 2 / FIG. 2); “No consistent change in developed contractile force” in data set [3] (all tested pacing frequencies, Example 2 / FIG. 2, listed as tocainide).

Turning to `CCCCNC(=O)NS(=O)(=O)c1ccc(C)cc1` [Tolbutamide], the “peak plasma concentration for improved ejection fraction and work product” value in data set [1] (after 1250 mg oral administration) was 63.5 μg/ml and 230 μM. Also, in data set [3] (blinded screening, Example 4), the “effect on developed contractile force / contractility” value is given as “did not show any dose-dependent effect on contractility”.
